Experiments:
[1] = temperature range at which the trihydrate precipitates (35° C. and below)
Piglets = conditions: compared with L-lysine hydrochloride; cited from earlier work

Compound	degree of solubility in water versus the solubility curve of anhydrous diL-lysine sulfate (FIG. 4) [1]	feed effects (Piglets)
NCCCC[C@H](N)C(=O)O.NCCCC[C@H](N)C(=O)O.O.O.O.O=S(=O)(O)O [diL-lysine monosulfate trihydrate]	lower than the degree of solubility that would be anticipated from the solubility curve of anhydrous diL-lysine sulfate	
NCCCC[C@H](N)C(=O)O.NCCCC[C@H](N)C(=O)O.O=S(=O)(O)O [diL-lysine sulfate]		equivalent to those of L-lysine hydrochloride

— patent publication US7161029B2, “DiL-lysine monosulfate trihydrate crystal and method of making” (Ajinomoto Co., Inc., priority 2003, dated 2007)
